The test system of test [1] is Viola arvensis, Bromus spp., Lolium spp., Agropyron repens and Urtica urens. The following applies: Hoechst et al., 1991; cited from earlier work.
For another test, the system named is Spermacoce latifolia. Kind of test: Post-emergence herbicidal activity (greenhouse), Spermacoce latifolia, Example 3. Format: in vivo. Particulars: 7 DAA. As for the experimental part:
(§1) The expected efficacy of a combination of L-glufosinate ammonium and the other herbicides was calculated using the well-established Colby method. Any difference between the observed and “expected” efficacy could be attributed to synergy between the two compounds.
In the Colby method, the expected (or predicted) response of a combination of herbicides is calculated by taking the product of the observed response for each individual component of the combination when applied alone, divided by 100, and subtracting this value from the sum of the observed response for each component when applied alone. An unexpected enhancement in efficacy of the combination is then determined by comparing the observed response of the combination to the expected (or predicted) response as calculated from the observed response of each individual component alone. If the observed response of the combination is greater than the expected (or predicted) response, or stated conversely, if the difference between the observed and expected response is greater than zero, then the combination is said to be synergistic or unexpectedly effective (Colby, S. R., Weeds, 1967(15), p. 20-22). […]
The percentage efficacy was calculated after 7 days of application (DAA). The target weed was Spermacoce latifolia, and the concentration of the herbicide and the results are recorded in the Table 3.

The subject of a further test is Brachiaria decumbens. Put plainly: Post-emergence herbicidal activity (greenhouse), Brachiaria decumbens, Example 2. The format is in vivo. The following applies: L-glufosinate ammonium 150, clethodim 45 g a.i./ha. How it is done:
as §1
(§2) In the Colby method, the expected (or predicted) response of a combination of herbicides is calculated by taking the product of the observed response for each individual component of the combination when applied alone, divided by 100, and subtracting this value from the sum of the observed response for each component when applied alone. An unexpected enhancement in efficacy of the combination is then determined by comparing the observed response of the combination to the expected (or predicted) response as calculated from the observed response of each individual component alone. If the observed response of the combination is greater than the expected (or predicted) response, or stated conversely, if the difference between the observed and expected response is greater than zero, then the combination is said to be synergistic or unexpectedly effective (Colby, S. R., Weeds, 1967(15), p. 20-22). The Colby method requires only a single dose of each herbicide applied alone and the mixture of both doses. The formula used to calculate the expected efficacy (EE) which was compared with the observed efficacy (OE) to determine the efficacy of the present disclosure is explained hereinbelow:
(§3) The expected efficacy for a combination of two active ingredients is as follows:
(§4) Evaluation of Post-Emergence Herbicidal Activity
(§5) Methodology: Greenhouse trials were conducted to evaluate the efficacy of the combination comprising L-glufosinate ammonium and clethodim on weeds Eleusine indica, Brachiaria decumbens, Spermacoce latifolia and weedy Glycine max.
(§6) The soil used was sandy clay loam—sand: 68.0%; silt: 8.0%; clay: 24.0%.
(§7) All treatments were in 3 replications per treatment with a spray volume of about 150 L/ha.
Example 2: Efficacy of L-Glufosinate Ammonium and Clethodim on Brachiaria decumbens
The percentage efficacy was calculated after 7, 14, 21, 28 and 35 days of application (DAA). The target weed was Brachiaria decumbens, and the concentration of the herbicides and the results are recorded in the Table 2.

Another test relates to Eleusine indica. Kind of test: Post-emergence herbicidal activity (greenhouse), Eleusine indica, Example 1. Particulars: L-glufosinate ammonium 150. The format is in vivo. How it is done: as §1, §2, §3, §4, §5, §6, §7
Example 1: Efficacy of L-Glufosinate Ammonium and Clethodim on Eleusine indica
The percentage efficacy was calculated after 3, 7, 28 and 35 days of application (DAA). The target weed was Eleusine indica, and the concentration of the herbicide and the results are recorded in the Table 1.

The test system of a further test is weedy Glycine max. Put plainly: Post-emergence herbicidal activity (greenhouse), weedy Glycine max, Example 4. Format: in vivo. Particulars: L-glufosinate ammonium 150. As for the experimental part: as §1, §2, §3, §4, §5, §6, §7
Example 4: Efficacy of L-Glufosinate Ammonium and Clethodim on Weedy Glycine max
The percentage efficacy was calculated after 3, 7, 14, 21, 28 and 35 days of application (DAA). The target weed was weedy Glycine max, and the concentration of the herbicide and the results are recorded in the Table 4.

The conditions of test [2]: cited from earlier work.

Here are results for 4 compounds from patent US20260354383A1, “AN HERBICIDAL COMBINATION, COMPOSITION AND METHOD OF CONTROLLING WEEDS USING THE SAME” (UPL Mauritius Limited, priority 2022, published 2026).

As for `CP(=O)(O)CCC(N)C(=O)O` (racemic) [Glufosinate, DL-homoalanin-4-yl(methyl)phosphinic acid], the “weed species either not combated, or only weakly combated” value in test [1] was “either not combated, or only weakly combated”.
Regarding `CCSC(C)CC1CC(=O)C(/C(CC)=N/OC/C=C/Cl)=C(O)C1` (stereo not drawn) [Clethodim, clethodim], the “% Control” value is recorded as 3% in the test on Spermacoce latifolia; 15% with Brachiaria decumbens (7 DAA); 55% with Brachiaria decumbens (14 DAA); 65% with Brachiaria decumbens (21 DAA); 75% in the test with Brachiaria decumbens (28 DAA); 71% with Brachiaria decumbens (35 DAA). Moreover, the “% Control” value is on record as 6.7% in the test on Eleusine indica (3 DAA); 15% in the test on Eleusine indica (7 DAA); 81.7% in the test with Eleusine indica (28 DAA); 84.3% with Eleusine indica (35 DAA); 0% with weedy Glycine max (3 DAA); 0% in the test with weedy Glycine max (7 DAA). Moreover, the “% Control” value in the test on weedy Glycine max (14 DAA), in the test with weedy Glycine max (21 DAA), in the test with weedy Glycine max (28 DAA) and in the test on weedy Glycine max (35 DAA) was 0% throughout.
On to `CP(=O)(O)CC[C@H](N)C(=O)O` [L-Glufosinate, (S)-2-amino-4-(hydroxy(methyl)phosphonoyl)butanoic acid], for which the “herbicidal activity relative to glyphosate” value in test [2] (vs glyphosate) is reported as “about four times that of glyphosate”. For the same compound, the “herbicidal activity relative to paraquat” value in test [2] (vs paraquat) is “about twice that of paraquat”. In addition, the “herbicidal activity relative to racemic glufosinate (DL-glufosinate)” value in test [2] (vs racemic glufosinate) is reported as “more than about twice that of racemic glufosinate”.
In the case of `CP(=O)(O)CC[C@H](N)C(=O)O.N` [L-glufosinate ammonium, ammonium (2S)-2-amino-4-(methylphosphinato)butyric acid], the “% Control” value with Spermacoce latifolia was 31.7%; in the test with Brachiaria decumbens (7 DAA), 50%; with Brachiaria decumbens (14 DAA), 79.3%; with Brachiaria decumbens (21 DAA), 82%; in the test with Brachiaria decumbens (28 DAA) it was 79.3%; with Brachiaria decumbens (35 DAA), 79.3%. Besides, the “% Control” value with Eleusine indica (3 DAA) was found to be 12.3%; in the test on Eleusine indica (7 DAA), 50.7%; in the test with Eleusine indica (28 DAA) it was 59.3%; in the test on Eleusine indica (35 DAA), 54.3%; in the test on weedy Glycine max (3 DAA), 15%; in the test with weedy Glycine max (7 DAA) it was 53.3%. Also, the “% Control” value was determined as 71% in the test on weedy Glycine max (14 DAA), 66.7% with weedy Glycine max (21 DAA), 56.7% with weedy Glycine max (28 DAA) and 41.7% in the test with weedy Glycine max (35 DAA).
